Biological target: Mitogen-activated protein kinase 14 (Homo sapiens, UniProt Q16539)
Experiment: Inhibition of p38-alpha MAP kinase

Chain of Mitogen-activated protein kinase 14 (Q16539 whole entry): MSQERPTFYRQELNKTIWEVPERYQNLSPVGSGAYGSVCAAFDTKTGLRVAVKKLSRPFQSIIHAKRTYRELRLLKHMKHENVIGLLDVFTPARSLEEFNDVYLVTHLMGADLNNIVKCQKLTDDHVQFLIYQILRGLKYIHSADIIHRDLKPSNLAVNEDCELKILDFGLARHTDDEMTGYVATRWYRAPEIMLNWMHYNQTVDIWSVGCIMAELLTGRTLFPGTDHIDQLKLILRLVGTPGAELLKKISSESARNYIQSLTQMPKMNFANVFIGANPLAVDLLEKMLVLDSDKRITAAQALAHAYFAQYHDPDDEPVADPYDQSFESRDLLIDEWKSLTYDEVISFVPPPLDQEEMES

| SMILES | IC50 |
| --- | --- |
| CN(C)C(=O)C(=O)c1c[nH]c2cc(Cl)c(C(=O)N3CCn4c(cnc4-c4ccc(F)cc4F)C3)cc12 | 11 nM |
| O=C(c1c[nH]c2ccccc12)N1CCc2c(cnn2-c2ccccc2Cl)C1 | 55 nM |
| Cn1ccc2cc(C(=O)N3CCn4c(cnc4-c4ccc(F)cc4F)C3)c(Cl)cc21 | 50 nM |
| CC(C)n1ccc2cc(C(=O)N3CCc4c(cnn4-c4ccccc4Cl)C3)ccc21 | 39 nM |
| CN(C)C(=O)C(=O)c1cn(C)c2cc(Cl)c(C(=O)N3CCc4c(ncnc4-c4ccc(F)cc4F)C3)cc12 | 195 nM |
| CN(C)C(=O)C(=O)c1cn(C)c2cc(Cl)c(C(=O)N3CCc4c(cnn4-c4ccccc4Cl)C3)cc12 | 33 nM |
| COc1nc2c(cc1C(=O)N1CCn3c(cnc3-c3ccc(F)cc3F)C1)c(C(=O)C(=O)N1CCC(O)C1)cn2C (racemic) | 16 nM |
| COc1nc2[nH]cc(C(=O)C(=O)N(C)C)c2cc1C(=O)N1CCc2c(cnn2-c2ccccc2Cl)C1 | 29 nM |
| O=C(c1cc2ccccc2[nH]1)N1CCc2c(cnn2-c2ccccc2Cl)C1 | 154 nM |
| O=C(c1ccc(F)cc1F)N1CCn2c(cnc2-c2ccc(F)cc2F)C1 | 593 nM |
| O=C(c1ccc2cc[nH]c2c1)N1CCc2c(cnn2-c2ccccc2Cl)C1 | 40 nM |
| O=C(c1c(F)cccc1F)N1CCc2c(cnn2-c2ccc(F)cc2Cl)C1 | 97 nM |
| O=C(c1cccc2[nH]ccc12)N1CCc2c(cnn2-c2ccccc2Cl)C1 | 37 nM |
| Cn1cc(C(=O)N2CCc3c(cnn3-c3ccccc3Cl)C2)c2ccccc21 | 40 nM |
| CN(C)C(=O)C(=O)c1cn(C)c2cc(Cl)c(C(=O)N3CCn4c(cnc4-c4ccc(F)cc4F)C3)cc12 | 14 nM |
| COc1nc2[nH]cc(C(=O)C(=O)N(C)C)c2cc1C(=O)N1CCn2c(cnc2-c2ccc(F)cc2F)C1 | 29 nM |
| O=C(c1c(Cl)cccc1Cl)N1CCc2c(cnn2-c2ccccc2Cl)C1 | 112 nM |
| COc1nc2[nH]ccc2cc1C(=O)N1CCn2c(cnc2-c2ccc(F)cc2F)C1 | 164 nM |
| COc1cc2c(cc1C(=O)N1CCn3c(cnc3-c3ccc(F)cc3F)C1)c(C(=O)C(=O)N(C)C)cn2C | 13 nM |
| CN(C)C(=O)C(=O)c1c[nH]c2ccc(C(=O)N3CCc4c(cnn4-c4ccccc4Cl)C3)cc12 | 37 nM |
| COc1cc2c(ccn2C)cc1C(=O)N1CCn2c(cnc2-c2ccc(F)cc2F)C1 | 38 nM |
| O=C(c1c(F)cccc1F)N1CCc2c(cnn2-c2ccccc2Cl)C1 | 68 nM |
| Cn1ccc2cc(C(=O)N3CCc4c(cnn4-c4ccccc4Cl)C3)ccc21 | 30 nM |
| Cn1ccc2cc(C(=O)N3CCc4c(cnn4-c4ccccc4Cl)C3)c(Cl)cc21 | 26 nM |
| COc1nc2[nH]ccc2cc1C(=O)N1CCc2c(cnn2-c2ccccc2Cl)C1 | 137 nM |
| O=C(c1c(F)cccc1F)N1CCn2c(cnc2-c2ccc(F)cc2F)C1 | 167 nM |
